Laboratory results from the supplement of paper PMC11208160.

Experiment: recombinant barcode read abundance after kanamycin selection (control-corrected) (log10(CPM+1)); higher = more efficient recombination; sequences stand for … in AGTGCAGAGAAAATCGGCCAGTTTTCTCTGCCTGCAGTCCGCATGCCGT…AGATTTATGCAGCGGACTGCCTTTCTCCCAAAGTGATAAACCGGACAGTATCATGGACCGGTTTTCCCGGTAATCCGTATTTGCAAGGTTGGTTTCACT; site = the 11-nt target
Outline: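 Reported as log10(CPM+1), each value stands for recombination efficiency. That efficiency is the averaged, control-corrected counts per million of barcodes found at recombinant junctions. Cells from a pooled E. coli library pairing targets with IS621 bridge RNA target-binding loops were plated twice on chloramphenicol/ampicillin LB agar (control) and twice on chloramphenicol/ampicillin/kanamycin with 0.1 mM IPTG.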
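Further: IS621 recombinase and bridge RNA in Escherichia coli cells.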

| Sequence | recombinant barcode read abundance (log10) |
| --- | --- |
| AGGAGCCCTTGGGTTCTAACCTGTTGCTC (site AGGAGCCCTTA) | 0.0844 |
| AGGAGCCCTTGGGTTCTAACCTGTTGCTT (site AGGAGCCCTAA) | 1.25 |
| AGGAGCCCTTGGGTTCTAACCTGTTGCTT (site AGGAGCCCTCA) | 0.0777 |
| AGGAGCCCTTGGGTTCTAACCTGTTGCTT (site AGGAGCCCTGA) | 0.0286 |
| AGGAGCCCTTGGGTTCTAACCTGTTGCTT (site AGGAGCCCTTA) | 0.271 |
| AGGAGCGCTTGGGTTCTAACCTGTTGCCT (site AGCAGCTCTAG) | 0.105 |
| AGGAGCGCTTGGGTTCTAACCTGTTGCCT (site AGGAGCGCTAG) | 1.95 |
| AGGAGTCCTTGGGTTCTAACCTGTTGCAG (site AGGAGTCCTCT) | 2.24 |
| AGGAGTCCTTGGGTTCTAACCTGTTGCAG (site GTACAAGCTAG) | 0.239 |
| AGGCAGACTTGGGTTCTAACCTGTTGCCA (site AGGAAGACTTG) | 0.0571 |
| AGGCAGACTTGGGTTCTAACCTGTTGCCA (site AGGCAGACTTG) | 0.699 |
| AGGCAGACTTGGGTTCTAACCTGTTGCCA (site AGGGAGACTTG) | 0.216 |
| AGGCAGACTTGGGTTCTAACCTGTTGCCA (site AGGTAGACTTG) | 0.639 |
| AGGCAGTCTTGGGTTCTAACCTGTTGCCT (site AGGCAGTCTAG) | 0.444 |
| AGGCAGTCTTGGGTTCTAACCTGTTGCCT (site AGGCCGTCTAC) | 0.0845 |
| AGGCGCCCTTGGGTTCTAACCTGTTGCAA (site AGGCGCCCTAT) | 0.187 |
| AGGCGCCCTTGGGTTCTAACCTGTTGCAA (site AGGCGCCCTCT) | 0.0506 |
| AGGCGCCCTTGGGTTCTAACCTGTTGCAA (site AGGCGCCCTGT) | 0.0953 |
| AGGCGCCCTTGGGTTCTAACCTGTTGCAA (site AGGCGCCCTTT) | 0.635 |
| AGGCTGACTTGGGTTCTAACCTGTTGCCT (site AGGCTGACTAG) | 0.94 |
| AGGCTGACTTGGGTTCTAACCTGTTGCCT (site AGGCTGCCTAG) | 0.0128 |
| AGGCTGACTTGGGTTCTAACCTGTTGCCT (site AGGCTGGCTAG) | 0.0298 |

| Sequence | recombinant barcode read abundance (log10) |
| --- | --- |
| AGGCTGACTTGGGTTCTAACCTGTTGCCT (site AGGCTGTCTAG) | 0.139 |
| AGGCTTACTTGGGTTCTAACCTGTTGCAG (site AGGCTTACTCT) | 1.47 |
| AGGCTTACTTGGGTTCTAACCTGTTGCAG (site AGTCCTACTCT) | 0.0844 |
| AGGGACTCTTGGGTTCTAACCTGTTGCCG (site AGGGACTCTCG) | 1.71 |
| AGGGACTCTTGGGTTCTAACCTGTTGCCG (site TGGGACACTCG) | 0.0423 |
| AGGGAGACTTGGGTTCTAACCTGTTGCTC (site AGGGAGACTGA) | 2.64 |
| AGGGAGACTTGGGTTCTAACCTGTTGCTC (site CACTTTGCTAG) | 0.151 |
| AGGGATCCTTGGGTTCTAACCTGTTGCGG (site AAGTATCCTCC) | 0.032 |
| AGGGATCCTTGGGTTCTAACCTGTTGCGG (site AGGGATCCTCC) | 2.7 |
| AGGGCACCTTGGGTTCTAACCTGTTGCCA (site AGGGCACCTTG) | 1.26 |
| AGGGCACCTTGGGTTCTAACCTGTTGCCA (site ATGGCACCTAG) | 0.186 |
| AGGGCTTCTTGGGTTCTAACCTGTTGCTA (site ACGGCTTCTTA) | 0 |
| AGGGCTTCTTGGGTTCTAACCTGTTGCTA (site AGGGCTTCTTA) | 1.87 |
| AGGGGAGCTTGGGTTCTAACCTGTTGCGG (site AGGGGAGCTCC) | 2.35 |
| AGGGGAGCTTGGGTTCTAACCTGTTGCGG (site ATGGGAGCTTC) | 0.0749 |
| AGGGGATCTTGGGTTCTAACCTGTTGCCT (site AGGGGATCTAG) | 1.86 |
| AGGGGATCTTGGGTTCTAACCTGTTGCCT (site AGTGGAGCTAG) | 0.0518 |
| AGGGGCACTTGGGTTCTAACCTGTTGCCG (site ACGGTCACTCG) | 0.104 |
| AGGGGCACTTGGGTTCTAACCTGTTGCCG (site AGGGGCACTCG) | 1.83 |
| AGGGGCTCTTGGGTTCTAACCTGTTGCTG (site ACGGGCTCTAA) | 0.0932 |
| AGGGGCTCTTGGGTTCTAACCTGTTGCTG (site AGGGGCTCTCA) | 3.01 |
| AGGTAACCTTGGGTTCTAACCTGTTGCCT (site AGGTAACCTAG) | 0.401 |

| Sequence | recombinant barcode read abundance (log10) |
| --- | --- |
| AGGTAACCTTGGGTTCTAACCTGTTGCCT (site CGGTAACCTAG) | 0.23 |
| AGGTAACCTTGGGTTCTAACCTGTTGCCT (site GGGTAACCTAG) | 0.885 |
| AGGTAACCTTGGGTTCTAACCTGTTGCCT (site TGGTAACCTAG) | 0.179 |
| AGGTCAACTTGGGTTCTAACCTGTTGCCG (site AGGTCAACTCG) | 0.0699 |
| AGGTCAACTTGGGTTCTAACCTGTTGCCG (site TAAGGTCCTAA) | 0.0279 |
| AGGTCACCTTGGGTTCTAACCTGTTGCCT (site AGGTCACCTAA) | 0.0905 |
| AGGTCACCTTGGGTTCTAACCTGTTGCCT (site AGGTCACCTAC) | 0.897 |
| AGGTCACCTTGGGTTCTAACCTGTTGCCT (site AGGTCACCTAG) | 1.83 |
| AGGTCACCTTGGGTTCTAACCTGTTGCCT (site AGGTCACCTAT) | 0.221 |
| AGGTCCGCTTGGGTTCTAACCTGTTGCTA (site AGGTCCGCTTA) | 1.4 |
| AGGTCCGCTTGGGTTCTAACCTGTTGCTA (site CACCAGCCTAT) | 0.026 |
| AGGTCCTCTTGGGTTCTAACCTGTTGCAT (site AGGTCCTCTAA) | 0.282 |
| AGGTCCTCTTGGGTTCTAACCTGTTGCAT (site AGGTCCTCTAC) | 0.0867 |
| AGGTCCTCTTGGGTTCTAACCTGTTGCAT (site AGGTCCTCTAG) | 0.707 |
| AGGTCCTCTTGGGTTCTAACCTGTTGCAT (site AGGTCCTCTAT) | 2.24 |
| AGGTCCTCTTGGGTTCTAACCTGTTGCTA (site AGGTCCTCTTA) | 1.96 |
| AGGTCCTCTTGGGTTCTAACCTGTTGCTA (site TGATCCTCTTA) | 0.0783 |
| AGGTGCTCTTGGGTTCTAACCTGTTGCCT (site AAGTGCTCTAG) | 0.0629 |
| AGGTGCTCTTGGGTTCTAACCTGTTGCCT (site ACGTGCTCTAG) | 0.179 |
| AGGTGCTCTTGGGTTCTAACCTGTTGCCT (site AGGTGCTCTAG) | 1.6 |
| AGGTGCTCTTGGGTTCTAACCTGTTGCCT (site ATGTGCTCTAG) | 0.107 |
| AGGTGTCCTTGGGTTCTAACCTGTTGCTT (site AGGTGTCCTAA) | 1.4 |

| Sequence | recombinant barcode read abundance (log10) |
| --- | --- |
| AGGTGTCCTTGGGTTCTAACCTGTTGCTT (site CGGTGTCCTAA) | 0.0102 |
| AGGTTAGCTTGGGTTCTAACCTGTTGCTA (site AGGTTAGCTTA) | 0.0546 |
| AGGTTAGCTTGGGTTCTAACCTGTTGCTA (site GCAAGTACTCT) | 0.538 |
| AGTAACCCTTGGGTTCTAACCTGTTGCCT (site AATAACCCTAG) | 0.0627 |
| AGTAACCCTTGGGTTCTAACCTGTTGCCT (site ACTAACCCTAG) | 0.158 |
| AGTAACCCTTGGGTTCTAACCTGTTGCCT (site AGTAACCCTAG) | 1.22 |
| AGTAACCCTTGGGTTCTAACCTGTTGCCT (site ATTAACCCTAG) | 0.137 |
| AGTAAGACTTGGGTTCTAACCTGTTGCAT (site AGTAAGACTAA) | 0.197 |
| AGTAAGACTTGGGTTCTAACCTGTTGCAT (site AGTAAGACTAC) | 0.0256 |
| AGTAAGACTTGGGTTCTAACCTGTTGCAT (site AGTAAGACTAG) | 0.423 |
| AGTAAGACTTGGGTTCTAACCTGTTGCAT (site AGTAAGACTAT) | 1.41 |
| AGTAAGCCTTGGGTTCTAACCTGTTGCAG (site ACTAAGCCTCC) | 0.133 |
| AGTAAGCCTTGGGTTCTAACCTGTTGCAG (site AGTAAGCCTCT) | 1.12 |
| AGTAAGCCTTGGGTTCTAACCTGTTGCCT (site AGTAAGCCTAG) | 0.864 |
| AGTAAGCCTTGGGTTCTAACCTGTTGCCT (site AGTCAGCCTAG) | 0.243 |
| AGTAAGCCTTGGGTTCTAACCTGTTGCCT (site AGTGAGCCTAG) | 0.187 |
| AGTAAGCCTTGGGTTCTAACCTGTTGCCT (site AGTTAGCCTAG) | 0.173 |
| AGTACGTCTTGGGTTCTAACCTGTTGCTT (site AGTACGTCTAA) | 0.201 |
| AGTACGTCTTGGGTTCTAACCTGTTGCTT (site GTTACGTCTAA) | 0.0179 |
| AGTACTCCTTGGGTTCTAACCTGTTGCTG (site AATACTACTCA) | 0.085 |
